In patent US11707434B2, “Method for preparing organic solvent-free lyophilized cyclophosphamide” (KOREA UNITED PHARM. INC., priority 2018, dated 2023) one finds Apparent density, Porosity and Average diameter data, which are given here for 1 compound.

This data set can be described thus: Measurement of porosity (KOPTRI). The format is physicochemical. As to the method:
The porosity measurement was performed by the Korea Polymer Testing & Research Institute (KOPTRI), an accredited international testing agency, by requesting the samples prepared by the present applicant.

In the case of `O=P1(N(CCCl)CCCl)NCCCO1` (stereo not drawn) [Comparison 2, 2-[bis(2-chloroethyl)amino]tetrahydro-2H-1,3,2-oxazaphosphorin-2-oxide], the Apparent density was found to be 1.31 g/mL and the Porosity is recorded as 5.24%. The same compound showed an Average diameter (pore size) of 0.02 μm.
